From PubChem BioAssay (NCI)
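Where inhibition never reached the appropriate level, the endpoint shown equals the highest concentration tested. Otherwise, values were interpolated linearly from a five-concentration, 48-hour dose response in 96-well plates. Definition used: TGI = concentration required for complete inhibition of growth.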

Key:
Assay in all cases: NCI anticancer screen, dose series, 48 h
786-0 renal = tested on: 786-0 renal
A498 renal = tested on: A498 renal
A549 NSCLC = tested on: A549 NSCLC
ACHN renal = tested on: ACHN renal
BT-549 breast = tested on: BT-549 breast
CAKI-1 renal = tested on: CAKI-1 renal
CCRF-CEM leukemia = tested on: CCRF-CEM leukemia
COLO 205 colon = tested on: COLO 205 colon
DU-145 prostate = tested on: DU-145 prostate
EKVX NSCLC = tested on: EKVX NSCLC
HCC-2998 colon = tested on: HCC-2998 colon
HCT-116 colon = tested on: HCT-116 colon
HCT-15 colon = tested on: HCT-15 colon
HOP-62 NSCLC = tested on: HOP-62 NSCLC
HOP-92 NSCLC = tested on: HOP-92 NSCLC
HS 578T breast = tested on: HS 578T breast
HT29 colon = tested on: HT29 colon
IGROV1 ovarian = tested on: IGROV1 ovarian
K-562 leukemia = tested on: K-562 leukemia
KM12 colon = tested on: KM12 colon
LOX IMVI melanoma = tested on: LOX IMVI melanoma
M14 melanoma = tested on: M14 melanoma
MALME-3M melanoma = tested on: MALME-3M melanoma
MCF7 breast = tested on: MCF7 breast
MDA-MB-231 breast = tested on: MDA-MB-231 breast
MDA-MB-435 = tested on: MDA-MB-435
MDA-N = tested on: MDA-N
MOLT-4 leukemia = tested on: MOLT-4 leukemia
NCI-H226 lung = tested on: NCI-H226 lung
NCI-H23 lung = tested on: NCI-H23 lung
NCI-H460 lung = tested on: NCI-H460 lung
NCI-H522 lung = tested on: NCI-H522 lung
NCI/ADR-RES ovarian = tested on: NCI/ADR-RES ovarian
OVCAR-3 ovarian = tested on: OVCAR-3 ovarian
OVCAR-4 ovarian = tested on: OVCAR-4 ovarian
OVCAR-5 ovarian = tested on: OVCAR-5 ovarian
OVCAR-8 ovarian = tested on: OVCAR-8 ovarian
PC-3 prostate = tested on: PC-3 prostate
RPMI-8226 leukemia = tested on: RPMI-8226 leukemia
SF-268 CNS = tested on: SF-268 CNS
SF-295 CNS = tested on: SF-295 CNS
SF-539 CNS = tested on: SF-539 CNS
SK-MEL-2 melanoma = tested on: SK-MEL-2 melanoma
SK-MEL-28 melanoma = tested on: SK-MEL-28 melanoma
SK-MEL-5 melanoma = tested on: SK-MEL-5 melanoma
SK-OV-3 ovarian = tested on: SK-OV-3 ovarian
SN12C renal = tested on: SN12C renal
SNB-19 CNS = tested on: SNB-19 CNS
SNB-75 CNS = tested on: SNB-75 CNS
SR leukemia = tested on: SR leukemia
SW-620 colon = tested on: SW-620 colon
T-47D breast = tested on: T-47D breast
TK-10 renal = tested on: TK-10 renal
U251 CNS = tested on: U251 CNS
UACC-257 melanoma = tested on: UACC-257 melanoma
UACC-62 melanoma = tested on: UACC-62 melanoma
UO-31 renal = tested on: UO-31 renal
HL-60(TB) leukemia = tested on: HL-60(TB) leukemia
RXF 393 renal = tested on: RXF 393 renal

For `COc1cc(/C=C2/CCS(=O)(=O)c3ccc(C)cc3C2=O)cc(OC)c1OC`, the TGI (786-0 renal) was greater than 35.4 µM, the TGI (A498 renal) was 23.7 µM and the TGI (A549 NSCLC) was greater than 42 µM. The TGI (ACHN renal) was 14.2 µM, the TGI (BT-549 breast) was greater than 26.3 µM and the TGI (CAKI-1 renal) was greater than 40.8 µM. It also gave a TGI (CCRF-CEM leukemia) greater than 100 µM, a TGI (COLO 205 colon) of 16.9 µM and a TGI (DU-145 prostate) greater than 27.6 µM. The TGI (EKVX NSCLC) was 30.2 µM, the TGI (HCC-2998 colon) was greater than 35.7 µM and the TGI (HCT-116 colon) was 11.2 µM. For the same compound, the TGI (HCT-15 colon) was greater than 39 µM, the TGI (HOP-62 NSCLC) was 23.1 µM and the TGI (HOP-92 NSCLC) was greater than 43.2 µM. It also gave a TGI (HS 578T breast) greater than 35.9 µM, a TGI (HT29 colon) greater than 33.8 µM and a TGI (IGROV1 ovarian) greater than 39.4 µM. The TGI (K-562 leukemia) was 4.06 µM, the TGI (KM12 colon) was greater than 41.2 µM and the TGI (LOX IMVI melanoma) was 6.4 µM. The TGI (M14 melanoma) was 18.9 µM, the TGI (MALME-3M melanoma) was greater than 36.3 µM and the TGI (MCF7 breast) was 14.9 µM. The TGI (MDA-MB-231 breast) was 11.2 µM, the TGI (MDA-MB-435) was greater than 27.2 µM and the TGI (MDA-N) was greater than 33.3 µM. The TGI (MOLT-4 leukemia) was greater than 100 µM, the TGI (NCI-H226 lung) was 45.9 µM and the TGI (NCI-H23 lung) was greater than 36.2 µM. For the same compound, the TGI (NCI-H460 lung) was 13.5 µM, the TGI (NCI-H522 lung) was 12.4 µM and the TGI (NCI/ADR-RES ovarian) was greater than 28.6 µM. It also gave a TGI (OVCAR-3 ovarian) of 20.1 µM, a TGI (OVCAR-4 ovarian) greater than 100 µM and a TGI (OVCAR-5 ovarian) of 25.4 µM. It also gave a TGI (OVCAR-8 ovarian) of 11.5 µM, a TGI (PC-3 prostate) greater than 100 µM and a TGI (RPMI-8226 leukemia) of 6.6 µM. For the same compound, the TGI (SF-268 CNS) was greater than 49.2 µM, the TGI (SF-295 CNS) was 42.1 µM and the TGI (SF-539 CNS) was 7.05 µM. It also gave a TGI (SK-MEL-2 melanoma) of 99.2 µM, a TGI (SK-MEL-28 melanoma) greater than 37.4 µM and a TGI (SK-MEL-5 melanoma) greater than 38.3 µM. For the same compound, the TGI (SK-OV-3 ovarian) was 37.8 µM, the TGI (SN12C renal) was 21.9 µM and the TGI (SNB-19 CNS) was greater than 34.8 µM. It also gave a TGI (SNB-75 CNS) of 30 µM, a TGI (SR leukemia) of 7.13 µM and a TGI (SW-620 colon) greater than 45.4 µM. For the same compound, the TGI (T-47D breast) was greater than 52.7 µM, the TGI (TK-10 renal) was greater than 44.5 µM and the TGI (U251 CNS) was greater than 31 µM. It also gave a TGI (UACC-257 melanoma) greater than 42.7 µM, a TGI (UACC-62 melanoma) of 16.8 µM and a TGI (UO-31 renal) of 23.4 µM.
`Cc1c(/C=N/NC(=S)Nc2ccccc2Cl)c(=O)n(-c2ccccc2)n1C` was tested, and the TGI (786-0 renal) was 50 µM, the TGI (A498 renal) was greater than 100 µM and the TGI (A549 NSCLC) was greater than 100 µM. It also gave a TGI (BT-549 breast) greater than 100 µM, a TGI (CAKI-1 renal) of 81.3 µM and a TGI (CCRF-CEM leukemia) greater than 100 µM. For the same compound, the TGI (COLO 205 colon) was greater than 100 µM, the TGI (DU-145 prostate) was greater than 100 µM and the TGI (EKVX NSCLC) was greater than 100 µM. For the same compound, the TGI (HCT-116 colon) was greater than 100 µM, the TGI (HCT-15 colon) was greater than 100 µM and the TGI (HL-60(TB) leukemia) was greater than 100 µM. The TGI (HOP-62 NSCLC) was 78.2 µM, the TGI (HS 578T breast) was 85.3 µM and the TGI (HT29 colon) was greater than 100 µM. It also gave a TGI (IGROV1 ovarian) greater than 100 µM, a TGI (K-562 leukemia) greater than 100 µM and a TGI (KM12 colon) greater than 100 µM. It also gave a TGI (LOX IMVI melanoma) greater than 100 µM, a TGI (M14 melanoma) greater than 100 µM and a TGI (MALME-3M melanoma) of 79.9 µM. The TGI (MCF7 breast) was greater than 100 µM, the TGI (MDA-MB-231 breast) was 35.7 µM and the TGI (MDA-MB-435) was greater than 100 µM. For the same compound, the TGI (MDA-N) was greater than 100 µM, the TGI (MOLT-4 leukemia) was greater than 100 µM and the TGI (NCI-H226 lung) was greater than 100 µM. It also gave a TGI (NCI-H460 lung) greater than 100 µM, a TGI (NCI-H522 lung) of 60.9 µM and a TGI (NCI/ADR-RES ovarian) of 76.1 µM. The TGI (OVCAR-3 ovarian) was greater than 100 µM, the TGI (OVCAR-4 ovarian) was greater than 100 µM and the TGI (OVCAR-5 ovarian) was greater than 100 µM. For the same compound, the TGI (OVCAR-8 ovarian) was 84.1 µM, the TGI (PC-3 prostate) was greater than 100 µM and the TGI (RPMI-8226 leukemia) was greater than 100 µM. The TGI (RXF 393 renal) was 47.9 µM, the TGI (SF-268 CNS) was greater than 100 µM and the TGI (SF-295 CNS) was 89.4 µM. For the same compound, the TGI (SF-539 CNS) was greater than 100 µM, the TGI (SK-MEL-2 melanoma) was greater than 100 µM and the TGI (SK-MEL-28 melanoma) was greater than 100 µM. For the same compound, the TGI (SK-MEL-5 melanoma) was greater than 100 µM, the TGI (SK-OV-3 ovarian) was 82.5 µM and the TGI (SN12C renal) was greater than 100 µM. It also gave a TGI (SNB-19 CNS) greater than 100 µM, a TGI (SNB-75 CNS) of 54.6 µM and a TGI (SR leukemia) greater than 100 µM. The TGI (SW-620 colon) was greater than 100 µM, the TGI (T-47D breast) was greater than 100 µM and the TGI (TK-10 renal) was 91.7 µM. The TGI (U251 CNS) was greater than 100 µM, the TGI (UACC-257 melanoma) was greater than 100 µM and the TGI (UACC-62 melanoma) was greater than 100 µM. The TGI (UO-31 renal) was greater than 100 µM.
